Molecular target: SIRT6 enzyme (Homo sapiens, UniProt Q8N6T7)
Assay: Measurement of deacetylation activity (SIRT6, AlphaLISA, H3K9(Ac) peptide)
Type: biochemical
Conditions: SIRT6 25 ng/mL, H3K9(Ac) biotin peptide 2 nM, NAD 10 μM, room temperature 30 minutes, duplicate
How it was run: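 Activation read as EC150, the concentration giving 150% activity relative to enzyme/no-enzyme DMSO controls, via variable-slope fit. Deacetylation of 2 nM biotinylated H3K9(Ac) peptide with 10 μM NAD+ by 25 ng/mL SIRT6 ran 30 min at room temperature, pH 8.0, then AlphaLISA detection of unmodified H3K9.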

Chain of SIRT6 enzyme (Q8N6T7 whole entry, species assumed): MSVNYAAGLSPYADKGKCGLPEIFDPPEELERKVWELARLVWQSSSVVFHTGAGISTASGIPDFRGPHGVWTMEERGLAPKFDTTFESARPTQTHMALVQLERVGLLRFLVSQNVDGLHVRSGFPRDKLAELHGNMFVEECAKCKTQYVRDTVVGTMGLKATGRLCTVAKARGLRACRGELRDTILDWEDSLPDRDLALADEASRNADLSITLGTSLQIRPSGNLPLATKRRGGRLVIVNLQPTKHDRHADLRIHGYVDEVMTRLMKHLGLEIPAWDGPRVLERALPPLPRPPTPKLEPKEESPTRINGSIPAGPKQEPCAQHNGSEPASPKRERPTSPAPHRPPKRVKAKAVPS

SMILES | EC150 (the concentration of the compound showing a relative enzyme activity of 150%) [μm]
COc1cc(-c2noc(N3CCc4nc(NC(=O)NCc5nccn5C)sc4C3)n2)ccc1F [Example 100, N-{5-[3-(4-fluoro-3-methoxyphenyl)-1,2,4-oxadiazol-5-yl]-4,5,6,7-tetrahydro[1,3]thiazolo[5,4-c]pyridin-2-yl}-N′-[(1-methyl-1H-imidazol-2-yl)methyl]urea] | 2.6
CC(=O)N1CC2Cc3nc(NC(=O)NC(C)C)sc3C(C1)N2c1nc(-c2ccc(F)cc2)no1 (stereo not drawn) [Example 137, N-{6-acetyl-10-[3-(4-fluorophenyl)-1,2,4-oxadiazol-5-yl]-4,5,6,7,8,9-hexahydro-4,8-epimino[1,3]thiazolo[5,4-d]azocin-2-yl}-N′-propan-2-ylurea] | 0.36
CNC(=O)Nc1nc2c(s1)CN(c1nc(-c3cccc(OC(F)(F)F)c3)no1)CC2 [Example 8, N-methyl-N′-(5-{3-[3-(trifluoromethoxy)phenyl]-1,2,4-oxadiazol-5-yl}-4,5,6,7-tetrahydro[1,3]thiazolo[5,4-c]pyridin-2-yl)urea] | 3.6
CC(=O)N1CC[C@@H](NC(=O)Nc2nc3c(s2)[C@@H]2COC[C@H](C3)N2c2ncc(-c3cccc(OC(F)F)n3)o2)C1 [Example 182, N-[(3R)-1-acetylpyrrolidin-3-yl]-N′-[(4S,8S)-10-{5-[6-(difluoromethoxy)pyridin-2-yl]-1,3-oxazol-2-yl}-4,7,8,9-tetrahydro-5H-4,8-epiminooxocino[5,4-d][1,3]thiazol-2-yl]urea] | 0.16
O=C(NCc1ccc[nH]c1=O)Nc1nc2c(s1)CN(c1nc(C3CCC(F)(F)CC3)no1)CC2 [Example 103, N-{5-[3-(4,4-difluorocyclohexyl)-1,2,4-oxadiazol-5-yl]-4,5,6,7-tetrahydro[1,3]thiazolo[5,4-c]pyridin-2-yl}-N′-[(2-oxo-1,2-dihydropyridin-3-yl)methyl]urea] | 1.8
CCNC(=O)Nc1nc2c(s1)C1CN(C(C)=O)CC(C2)N1c1nc(-c2ccc(F)cc2)no1 (stereo not drawn) [Example 136, N-{6-acetyl-10-[3-(4-fluorophenyl)-1,2,4-oxadiazol-5-yl]-4,5,6,7,8,9-hexahydro-4,8-epimino[1,3]thiazolo[5,4-d]azocin-2-yl}-N′-ethylurea] | 0.34
O=C(Nc1nc2c(s1)CN(c1nc(C3CC(F)(F)CCO3)no1)CC2)N[C@@H]1CCOC1 (stereo partly drawn) [Example 95, N-{5-[3-(4,4-difluorooxan-2-yl)-1,2,4-oxadiazol-5-yl]-4,5,6,7-tetrahydro[1,3]thiazolo[5,4-c]pyridin-2-yl}-N′-[(3R)-oxolan-3-yl]urea] | 2.2
O=C(Nc1nc2c(s1)CN(c1nccc(C3CCCOC3)n1)CC2)N[C@H]1C[C@H](O)C1 (stereo partly drawn) [Example 192, N-[(1r,3r)-3-hydroxycyclobutyl]-N′-{5-[4-(oxan-3-yl)pyrimidin-2-yl]-4,5,6,7-tetrahydro[1,3]thiazolo[5,4-c]pyridin-2-yl}urea] | 0.44
[2H]C([2H])([2H])Oc1ccc2oc(N3[C@@H]4COC[C@H]3c3sc(NC(=O)N[C@H](C)CO)nc3C4)nc2c1 [Example 76, N-[(2R)-1-hydroxypropan-2-yl]-N′-[(4S,8S)-10-{5-[(^2H3)methyloxy]-1,3-benzoxazol-2-yl}-4,7,8,9-tetrahydro-5H-4,8-epiminooxocino[5,4-d][1,3]thiazol-2-yl]urea] | 1.3
CNC(=O)Nc1nc2c(s1)[C@@H]1COC[C@H](C2)N1c1nc(C2CCC(F)(F)CC2)no1 [Example 7, N-{(4S,8S)-10-[3-(4,4-difluorocyclohexyl)-1,2,4-oxadiazol-5-yl]-4,7,8,9-tetrahydro-5H-4,8-epiminooxocino[5,4-d][1,3]thiazol-2-yl}-N′-methylurea] | 5.7
CNC(=O)Nc1nc2c(s1)C1CN(C(=O)OC)CC(C2)N1c1cc(-c2ccc(F)cc2)on1 (stereo not drawn) [Example 64, Methyl 10-[5-(4-fluorophenyl)-1,2-oxazol-3-yl]-2-[(methylcarbamoyl)amino]-4,7,8,9-tetrahydro-4,8-epimino[1,3]thiazolo[5,4-d]azocine-6(5H)-carboxylate] | 0.49
CNC(=O)Nc1nc2c(s1)[C@@H]1COC[C@H](C2)N1c1nc2cc(OC)ccc2o1 [Example 48, N-[(4S,8S)-10-(5-methoxy-1,3-benzoxazol-2-yl)-4,7,8,9-tetrahydro-5H-4,8-epiminooxocino[5,4-d][1,3]thiazol-2-yl]-N′-methylurea] | 1.2
CNC(=O)Nc1nc2c(s1)C1COCC(C2)N1c1nnc(-c2cccc(C(F)(F)F)c2)o1 (stereo not drawn) [Example 110, N-methyl-N′-(10-{5-[3-(trifluoromethyl)phenyl]-1,3,4-oxadiazol-2-yl}-4,7,8,9-tetrahydro-5H-4,8-epiminooxocino[5,4-d][1,3]thiazol-2-yl)urea] | 3.7
O=C(Nc1nc2c(s1)[C@@H]1COC[C@H](C2)N1c1cc(-c2ccc(F)cc2)on1)N[C@H]1CC[C@H](O)CC1 [Example 159, N-{(4S,8S)-10-[5-(4-fluorophenyl)-1,2-oxazol-3-yl]-4,7,8,9-tetrahydro-5H-4,8-epiminooxocino[5,4-d][1,3]thiazol-2-yl}-N′-[(1r,4r)-4-hydroxycyclohexyl]urea] | 1.3
O=C(Nc1nc2c(s1)CN(c1nc(C3CCC(F)(F)CC3)no1)CC2)N[C@H]1CC[C@H](O)CC1 [Example 26, N-{5-[3-(4,4-difluorocyclohexyl)-1,2,4-oxadiazol-5-yl]-4,5,6,7-tetrahydro[1,3]thiazolo[5,4-c]pyridin-2-yl}-N′-[(1r,4r)-4-hydroxycyclohexyl]urea] | 0.81
COc1cccc(-c2cnc(N3[C@@H]4COC[C@H]3c3sc(NC(=O)N[C@H]5CC[C@H](O)CC5)nc3C4)o2)n1 [Example 188, N-[(1r,4r)-4-hydroxycyclohexyl]-N′-{(4S,8S)-10-[5-(6-methoxypyridin-2-yl)-1,3-oxazol-2-yl]-4,7,8,9-tetrahydro-5H-4,8-epiminooxocino[5,4-d][1,3]thiazol-2-yl}urea] | 0.4
CC(C)OC(=O)N1CC2Cc3nc(NC(=O)NC4CCOCC4)sc3C(C1)N2c1nc(-c2ccc(F)cc2)no1 (stereo not drawn) [Example 143, Propan-2-yl-10-[3-(4-fluorophenyl)-1,2,4-oxadiazol-5-yl]-2-{[(oxan-4-yl)carbamoyl]amino}-4,7,8,9-tetrahydro-4,8-epimino[1,3]thiazolo[5,4-d]azocine-6(5H)-carboxylate] | 0.62
COc1cccc(-c2cnc(N3[C@@H]4COC[C@H]3c3sc(NC(=O)NC5CCOCC5)nc3C4)o2)n1 [Example 186, N-{(4S,8S)-10-[5-(6-methoxypyridin-2-yl)-1,3-oxazol-2-yl]-4,7,8,9-tetrahydro-5H-4,8-epiminooxocino[5,4-d][1,3]thiazol-2-yl}-N′-oxan-4-ylurea] | 0.48
CNC(=O)Nc1nc2c(s1)C1CCC(C2)N1c1cc(-c2ccc(F)cc2)on1 (stereo not drawn) [Example 11, N-{9-[5-(4-fluorophenyl)-1,2-oxazol-3-yl]-5,6,7,8-tetrahydro-4H-5,8-epiminocyclohepta[d][1,3]thiazol-2-yl}-N′-methylurea] | 4.3
O=C(Nc1nc2c(s1)[C@@H]1COC[C@H](C2)N1c1ncc(-c2cccc(OC(F)F)n2)o1)N[C@H]1CC[C@H](O)CC1 [Example 176, N-[(4S,8S)-10-{5-[6-(difluoromethoxy)pyridin-2-yl]-1,3-oxazol-2-yl}-4,7,8,9-tetrahydro-5H-4,8-epiminooxocino[5,4-d][1,3]thiazol-2-yl]-N′-[(1r,4r)-4-hydroxycyclohexyl]urea] | 0.33
CNC(=O)Nc1nc2c(s1)[C@@H]1COC[C@H](C2)N1c1nc(-c2ccc(F)cc2)co1 [Example 17, N-{(4S,8S)-10-[4-(4-fluorophenyl)-1,3-oxazol-2-yl]-4,7,8,9-tetrahydro-5H-4,8-epiminooxocino[5,4-d][1,3]thiazol-2-yl}-N′-methylurea] | 1.8
C[C@H](CO)NC(=O)Nc1nc2c(s1)CN(c1nc(C(C)(C)OCC(F)(F)F)no1)CC2 [Example 91, N-[(2R)-1-hydroxypropan-2-yl]-N′-(5-{3-[2-(2,2,2-trifluoroethoxy)propan-2-yl]-1,2,4-oxadiazol-5-yl}-4,5,6,7-tetrahydro[1,3]thiazolo[5,4-c]pyridin-2-yl)urea] | 0.81
CS(=O)(=O)N1CC2Cc3nc(NC(=O)NC4CCOCC4)sc3C(C1)N2c1nc(-c2ccc(F)cc2)no1 (stereo not drawn) [Example 30, N-{10-[3-(4-fluorophenyl)-1,2,4-oxadiazol-5-yl]-6-(methanesulfonyl)-4,5,6,7,8,9-hexahydro-4,8-epimino[1,3]thiazolo[5,4-d]azocin-2-yl}-N′-oxan-4-ylurea] | 0.18
COc1cccc(-c2cnc(N3[C@@H]4COC[C@H]3c3sc(NC(=O)N[C@@H]5CCOC5)nc3C4)o2)n1 [Example 185, N-{(4S,8S)-10-[5-(6-methoxypyridin-2-yl)-1,3-oxazol-2-yl]-4,7,8,9-tetrahydro-5H-4,8-epiminooxocino[5,4-d][1,3]thiazol-2-yl}-N′-[(3R)-oxolan-3-yl]urea] | 0.4

From patent US11981686B2, “Urea compound having substituent” (DAIICHI SANKYO COMPANY, LIMITED, priority 2019, dated 2024)
